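Dose response: 5 concentrations. Exposure: 48 h. Format: 96-well plates. Endpoint: linear interpolation; highest concentration if not reached. GI50 marks 50% less growth. TGI: concentration producing complete growth inhibition.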
Tests used:
Assay in all cases: NCI-60 cell line screen, 48 h
NCI/ADR-RES ovarian = system: NCI/ADR-RES ovarian
ACHN renal = system: ACHN renal
HS 578T breast = system: HS 578T breast
HCC-2998 colon = system: HCC-2998 colon
KM12 colon = system: KM12 colon
SNB-19 CNS = system: SNB-19 CNS
HOP-62 NSCLC = system: HOP-62 NSCLC
SR leukemia = system: SR leukemia
SK-MEL-2 melanoma = system: SK-MEL-2 melanoma
OVCAR-5 ovarian = system: OVCAR-5 ovarian
HCT-116 colon = system: HCT-116 colon
SK-MEL-5 melanoma = system: SK-MEL-5 melanoma
UACC-62 melanoma = system: UACC-62 melanoma
UO-31 renal = system: UO-31 renal
SF-539 CNS = system: SF-539 CNS
MDA-MB-435 = system: MDA-MB-435
HOP-92 NSCLC = system: HOP-92 NSCLC

Row | Compound | TGI (NCI/ADR-RES ovarian) [µM] | TGI (ACHN renal) [µM] | TGI (HS 578T breast) [µM] | TGI (HCC-2998 colon) [µM] | TGI (KM12 colon) [µM] | TGI (SNB-19 CNS) [µM] | TGI (HOP-62 NSCLC) [µM] | TGI (SR leukemia) [µM] | TGI (SK-MEL-2 melanoma) [µM] | TGI (OVCAR-5 ovarian) [µM] | TGI (HCT-116 colon) [µM] | TGI (SK-MEL-5 melanoma) [µM] | TGI (UACC-62 melanoma) [µM] | TGI (UO-31 renal) [µM] | TGI (SF-539 CNS) [µM] | TGI (MDA-MB-435) [µM] | TGI (HOP-92 NSCLC) [µM] | GI50 (HCT-116 colon) [µM] | GI50 (UACC-62 melanoma) [µM] | GI50 (MDA-MB-435) [µM]
1 | O=C1N(c2ccccc2)C(=S)/C(=C/c2ccc(Cl)cc2)N1c1ccc(Cl)cc1 | > 100 | 49.1 | > 100 | > 100 | > 100 | > 100 | > 100 | 15.5 | > 100 | > 100 | > 100 | > 100 | 53.3 | > 100 | 41.2 | > 100 | – | – | – | –
2 | Cc1cc2ccc(N)nc2[nH]c1=O | > 100 | > 100 | > 100 | – | > 100 | > 100 | – | > 100 | > 100 | > 100 | > 100 | > 100 | > 100 | > 100 | > 100 | > 100 | > 100 | – | – | –
3 | O=c1[nH]c2ccc([N+](=O)[O-])cc2nc1/C=C(\O)c1ccccc1 | 81.5 | > 100 | 8.93 | > 100 | > 100 | 31.8 | 22.1 | > 100 | > 100 | > 100 | > 100 | > 100 | > 100 | > 100 | 69.8 | > 100 | – | – | – | –
4 | CC(C)c1ccc(/C=C2\CSCC3=C2N=C2SCC(=O)N2C3c2ccc(C(C)C)cc2)cc1 (configuration not stated) | > 100 | > 100 | > 100 | > 100 | > 100 | – | > 100 | > 100 | > 100 | > 100 | > 100 | > 100 | > 100 | > 100 | > 100 | > 100 | > 100 | – | – | –
5 | O=c1[nH]nc(-c2ccccc2)n1-n1cnnc1 | > 100 | > 100 | > 100 | > 100 | > 100 | > 100 | > 100 | > 100 | > 100 | > 100 | > 100 | > 100 | > 100 | > 100 | > 100 | > 100 | > 100 | – | – | –
6 | CC(C)NC(=O)OCc1c(COC(=O)NC(C)C)c(-c2cc[n+](COC(=O)C3CCCCC3)cc2)n2c1CCC2 | > 100 | > 100 | > 100 | > 100 | > 100 | > 100 | > 100 | > 100 | > 100 | > 100 | > 100 | > 100 | > 100 | > 100 | > 100 | > 100 | > 100 | – | – | –
7 | CCOC(=O)CCC(NC(=O)c1ccc(Nc2nc3ccccc3nc2C(=O)OCC)cc1)C(=O)OCC (configuration not stated) | 27 | 11.5 | 21.7 | > 100 | > 100 | 14 | 12.4 | > 100 | 24.4 | > 56.4 | 8.6 | > 100 | 9.15 | 12.2 | 5.62 | > 100 | 13.9 | – | – | –
8 | CCOC(=O)/C=C/[C@@H](CC)O[Si](C(C)C)(C(C)C)C(C)C | > 100 | > 100 | > 100 | > 100 | > 100 | > 100 | > 100 | > 100 | > 100 | > 100 | > 100 | > 100 | > 100 | > 100 | > 100 | > 100 | > 100 | – | – | –
9 | CN(C)CCCNC(=O)c1cn2c(ccc3sc4ccccc4c(=O)c32)n1 | 8.37 | 25.8 | 36.1 | 25.4 | 37.6 | 31.8 | 28 | 30 | 38.4 | 22.8 | 2.98 | 3.34 | 35.9 | 24.3 | 33.1 | 30.4 | 24.7 | – | – | –
10 | COC1CC(OC2C(C)OC(OC3C(C)OC(OC4C(C)OC(O[C@H]5CC[C@@]6(C)C(=CC[C@]7(O)[C@@H]6C[C@@H](O)[C@@]6(C)[C@]7(O)CC[C@@]6(O)C(C)=O)C5)CC4OC)CC3OC)CC2OC)OC(C)C1O (some centres not stated) | > 12.5 | > 12.5 | > 12.5 | > 12.5 | > 12.5 | > 12.5 | > 12.5 | > 12.5 | > 12.5 | > 12.5 | > 12.5 | > 12.5 | > 12.5 | > 12.5 | > 12.5 | > 12.5 | > 12.5 | – | – | –
11 | Cc1ccc(/C=C2/N=C(N/N=C\c3ccccc3)NC2=O)cc1 | > 100 | 38.4 | 85.3 | 72.1 | > 100 | 90.5 | > 100 | > 100 | > 100 | > 100 | > 100 | > 100 | – | 45.6 | > 100 | 69.7 | – | – | – | –
12 | N#Cc1nc(/C=C/c2cccnc2)oc1N | > 100 | > 100 | > 100 | > 100 | > 100 | > 100 | > 100 | > 100 | > 100 | > 100 | > 100 | > 100 | > 100 | > 100 | > 100 | > 100 | > 100 | – | – | –
13 | CCOc1cc2c(cc1O)C(N)C[C@@H]1[C@@H]2CC[C@]2(C)[C@@H](O)CC[C@@H]12 (some centres not stated) | > 100 | > 100 | > 100 | > 100 | > 100 | > 100 | > 100 | 63 | > 100 | > 100 | > 100 | > 100 | > 100 | > 100 | – | 52.4 | > 100 | 39.7 | 18.7 | 16.2
14 | O=C(Nc1ccc(Cl)cc1)c1cc(S(=O)(=O)Nc2n[nH]c(=O)n2-c2ccccc2)c(S)cc1Cl | > 100 | – | > 100 | > 100 | > 100 | > 100 | > 100 | > 100 | > 100 | > 100 | > 100 | > 100 | > 100 | > 100 | > 100 | > 100 | > 100 | – | – | –
15 | CC(=O)c1sc2[n+](c1C)C(=O)/C(=C\c1ccccc1Cl)S2 | 61.6 | 36 | > 100 | 37.6 | 35.2 | 47.6 | 47.7 | 52.5 | 55.8 | 50.1 | 37.6 | 23.4 | 25.8 | 34 | 44.7 | 28.9 | > 100 | – | – | –
16 | Cn1cc(NC(=O)Nc2cc(C(=O)Nc3cc(C(=O)Nc4cc(S(=O)(=O)O)c5cc(S(=O)(=O)O)cc(S(=O)(=O)O)c5c4)n(C)c3)n(C)c2)cc1C(=O)Nc1cc(C(=O)Nc2cc(S(=O)(=O)O)c3cc(S(=O)(=O)O)cc(S(=O)(=O)O)c3c2)n(C)c1 | > 100 | > 100 | > 100 | > 100 | > 100 | > 100 | > 100 | > 100 | – | > 100 | > 100 | > 100 | > 100 | > 100 | > 100 | > 100 | > 100 | – | – | –
17 | CC[C@@]1(O)C(=O)OCc2c1cc1n(c2=O)Cc2c-1nc1ccccc1c2/C=N\NC(=O)C(N)Cc1c[nH]c2ccccc12 (some centres not stated) | > 35.6 | 0.446 | > 100 | > 65.7 | > 42.7 | 1.74 | – | 1.19 | 36.3 | > 87 | 15.5 | 2.49 | 0.712 | 1.48 | 0.584 | > 87.9 | > 54 | – | – | –
18 | O=C1C(c2c(O)[nH]c3ccc(S(=O)(=O)NCCO)cc23)=Nc2ccccc21 | > 100 | > 100 | > 100 | > 100 | 2.2 | > 100 | > 100 | 21.6 | 17.9 | > 100 | 16.2 | > 100 | > 100 | > 100 | – | > 100 | 82.4 | – | – | –
19 | COC(=O)c1cc(/C=C\c2cc(OC)ccc2OC)ccc1OC | > 100 | > 100 | > 100 | 45.7 | > 100 | > 100 | 77.1 | > 100 | 74.2 | > 100 | > 100 | 34.5 | 90.8 | 75.3 | > 100 | 61.4 | – | – | – | –
20 | CN(C)/C=C/C=C(/C=N/S(=O)(=O)C(F)(F)F)C1C=CN(S(=O)(=O)C(F)(F)F)C=C1 | 96.1 | 84.7 | > 100 | 78.5 | 71.1 | – | > 100 | > 100 | 54.1 | 91.7 | 87.2 | 51.7 | 83.9 | 89.4 | – | 73.5 | 90 | – | – | –
21 | O=C(Nc1ccc2ccccc2c1)c1cc2cc(CCl)ccc2oc1=O | > 100 | > 100 | 8.73 | > 100 | > 100 | > 100 | > 100 | > 100 | 63.3 | > 100 | > 100 | > 100 | > 100 | > 100 | – | > 100 | > 100 | – | – | –
22 | COc1ccc(CNc2nc3ccccc3nc2C(=O)O)cc1 | > 100 | – | > 100 | > 100 | > 100 | > 100 | > 100 | > 100 | > 100 | > 100 | > 100 | > 100 | > 100 | > 100 | > 100 | > 100 | > 100 | – | – | –
23 | O=[N+]([O-])/C(C(Cl)=C(Cl)Cl)=C(/Nc1ccccc1)Sc1ccccc1 | 78.9 | 33.1 | > 100 | 32.8 | 36 | 34.3 | 62 | 43 | – | – | 38.4 | 36.7 | 39.9 | 27.5 | 52.3 | 33.9 | 68.3 | – | – | –
24 | Cc1c(O)c(=O)ccn1CCc1ccc(O)cc1 | 59.5 | > 100 | 69.6 | – | > 100 | > 100 | > 100 | > 100 | – | > 100 | > 100 | 51.7 | 12.8 | – | 62.5 | > 100 | 57 | – | – | –
25 | O=C1CC(c2ccccc2)S(=O)c2ccccc2N1 (configuration not stated) | > 100 | > 100 | > 100 | – | > 100 | > 100 | > 100 | > 100 | – | > 100 | > 100 | > 100 | > 100 | > 100 | – | > 100 | – | – | – | –
26 | COc1ccc(-n2cnc3c(NC(Cc4ccccc4)C(=O)O)ncnc32)cc1 (configuration not stated) | > 100 | > 100 | > 100 | > 100 | > 100 | – | > 100 | > 100 | > 100 | > 100 | > 100 | > 100 | > 100 | > 100 | – | > 100 | > 100 | – | – | –
27 | c1cc2c(cc1C1=NCCN1)c1cc(C3=NCCN3)ccc1n2CC1CCCCC1 | > 100 | > 100 | 32 | – | > 100 | 46.3 | 94.8 | 38.6 | 34.6 | 95.6 | 51.1 | 36.2 | – | > 100 | 19.2 | 50.3 | 47.9 | – | – | –
